The supplement of paper PMC8882468
± gives the standard deviation of the averaged measurements.

Legend:
Experiment in all cases: CTG-3D luminescence at 96 h relative to day-0 seeding control (ratio to day 0); higher = more growth / less cytotoxicity; PDxO 3D drug screen, 96 h, CTG-3D normalised to day-0 seeding control.
HCI-001 = test system: HCI-001 (organoid from a triple-negative breast cancer xenograft)
HCI-003.E2 = test system: HCI-003.E2 (organoid from an ER-positive breast cancer xenograft)
HCI-012 = test system: HCI-012 (organoid from a breast cancer xenograft)
HCI-024 = test system: HCI-024 (organoid from a breast cancer xenograft)
HCI-027 = test system: HCI-027 (organoid from a triple-negative breast cancer xenograft)

COc1cc2c(Oc3ccc4[nH]c(C)cc4c3F)ncnc2cc1OCCCN1CCCC1 [cediranib]
CTG-3D luminescence at 96 h
Conditions	12.5 pM	0.00025 µM	0.005 µM	0.1 µM	1 µM	10 µM	100 µM	625 fM
HCI-001, days in culture: 240	1.68	1.12	1.16	0.837	1.93	0.491	0.00478	1.37
HCI-001, days in culture: 260	1.84	0.917	1.79	1.4	1.81	0.0612	0.00103	1.3
HCI-001, days in culture: 269	1.74	2.02	1.64	2.09	2.09	0.00899	-0.0128	1.63
HCI-001, days in culture: 327	1.52	1.34	1.78	1.71	1.48	0.433	0.00365	1.84
HCI-001, days in culture: 346	1.6	1.18	1.25	1.32	1.41	0.639	0.00677	1.33
HCI-001, days in culture: 364	1.33	1.06	1.55	1.18	1.23	0.264	0.00077	1.44
HCI-012, days in culture: 143	2.15	1.81	1.84	2.55	2.33	0.0236	-0.00161	2
HCI-012, days in culture: 162	2.22	1.99	1.54	2.43	2.26	0.0254	-0.00236	3.02
HCI-012, days in culture: 201	2.36	2.05	1.5	1.45	2.29	0.0167	-0.00095	1.66
HCI-024, days in culture: 105	1.09	1.54	1.4	1.6	1.26	0.0298	-0.000777	1.39
HCI-024, days in culture: 122	1.5	1.9	1.93	1.84	1.65	0.0558	-0.000119	2.28
HCI-024, days in culture: 163	2.12	2.16	1.81	2.23	1.92	0.416	0.00136	2.19
HCI-027, days in culture: 176	1.99	1.2	2.24	1.46	2.56	0.0266	-0.00276	1.66
HCI-027, days in culture: 194	1.76	1.48	1.39	1.94	2.13	0.0281	-0.00212	1.47
HCI-027, days in culture: 201	2.17	1.9	1.78	1.87	2.39	0.0302	-0.000884	1.9

HCI-003.E2
Conditions	CTG-3D luminescence at 96 h
12.5 pM	2.13 ± 0.86
0.00025 µM	2.53 ± 0.78
0.005 µM	2.12 ± 0.35
0.1 µM	2.33 ± 0.4
1 µM	1.95 ± 0.42
10 µM	0.251 ± 0.12
100 µM	0.0212 ± 0.037
625 fM	2.18 ± 0.54

NC(=O)c1cccc2cn(-c3ccc([C@@H]4CCCNC4)cc3)nc12 [niraparib]
CTG-3D luminescence at 96 h
Conditions	12.5 pM	0.00025 µM	0.005 µM	0.1 µM	1 µM	10 µM	100 µM	625 fM
HCI-001, days in culture: 240	1.8	0.913	0.843	1.05	1.61	1.03	-0.07	1.32
HCI-001, days in culture: 260	2.65	1.11	2.11	1.64	1.53	1.92	-0.0335	1.4
HCI-001, days in culture: 269	1.85	1.93	1.42	1.32	1.1	1.23	-0.00141	1.67
HCI-001, days in culture: 327	1.97	1.95	2.3	1.8	1.66	1.28	-0.186	2.27
HCI-001, days in culture: 346	1.69	1.24	1.24	1.4	1.51	1.1	-0.143	1.28
HCI-001, days in culture: 364	1.81	1.28	1.69	1.33	1.33	1.2	-0.0638	1.67
HCI-012, days in culture: 143	2.27	2.44	2.4	2.56	1.52	0.467	-0.00164	1.73
HCI-012, days in culture: 162	2.37	2.45	2.2	2.6	0.841	0.415	-0.00213	3.12
HCI-012, days in culture: 201	3.14	2.4	1.89	1.81	1.95	0.307	-0.207	1.71
HCI-024, days in culture: 105	1.48	1.61	1.14	1.43	1.44	1.27	0.00247	1.56
HCI-024, days in culture: 122	2.12	2.38	2.08	1.71	1.88	1.29	0.00108	2.15
HCI-024, days in culture: 163	1.73	1.86	1.82	2.37	1.78	1.17	0.00351	2.44
HCI-027, days in culture: 176	3.12	1.73	3.18	2.13	1.7	0.11	-0.239	3.68
HCI-027, days in culture: 194	2.35	1.82	2.05	2.39	1.88	0.735	-0.0845	2.19
HCI-027, days in culture: 201	3.32	3.11	3.01	2.94	1.55	0.457	-0.0215	2.7

HCI-003.E2
Conditions	CTG-3D luminescence at 96 h
12.5 pM	2.06 ± 0.91
0.00025 µM	2.18 ± 0.87
0.005 µM	1.93 ± 0.43
0.1 µM	2.06 ± 0.65
1 µM	1.81 ± 0.66
10 µM	1.28 ± 0.43
100 µM	-0.000881 ± 0.0012
625 fM	1.94 ± 0.36

CN(Cc1cnc2nc(N)nc(N)c2n1)c1ccc(C(=O)N[C@@H](CCC(=O)O)C(=O)O)cc1 [methotrexate]
CTG-3D luminescence at 96 h
Conditions	12.5 pM	0.00025 µM	0.005 µM	0.1 µM	1 µM	10 µM	100 µM	625 fM
HCI-001, days in culture: 240	2.01	1.12	1.13	1.01	1.26	1.06	1.21	1.72
HCI-001, days in culture: 260	2.08	0.984	2.27	1.47	1.43	1.62	0.88	1.26
HCI-001, days in culture: 269	1.68	1.46	1.53	1.86	1.46	2.16	2.3	1.5
HCI-001, days in culture: 327	1.75	1.62	2.05	1.14	0.877	0.985	1.35	1.69
HCI-001, days in culture: 346	1.53	1.34	1.28	1.02	0.965	1.41	1.19	1.2
HCI-001, days in culture: 364	1.58	1.17	1.45	0.891	0.633	1.11	0.716	1.64
HCI-012, days in culture: 143	2.07	1.83	2.09	1.37	1.4	1.33	1.51	2.07
HCI-012, days in culture: 162	2.66	2.5	2.06	1.69	1.04	1.12	1.06	2.7
HCI-012, days in culture: 201	2.49	2.01	1.57	0.935	1.44	0.611	1.21	1.49
HCI-024, days in culture: 105	1.92	1.49	1.24	1.99	1.64	2	1.44	1.83
HCI-024, days in culture: 122	1.69	2.22	2.07	2	2.13	2.46	1.82	2.88
HCI-024, days in culture: 163	1.9	2.08	1.83	2.4	2.14	2.03	1.74	2.12
HCI-027, days in culture: 176	2.07	1.47	2.43	1.51	1.97	1.55	1.68	1.28
HCI-027, days in culture: 194	1.69	1.38	1.57	1.17	1.04	1.07	0.572	1.44
HCI-027, days in culture: 201	1.69	1.66	2.26	1.14	0.939	0.886	0.445	1.25

HCI-003.E2
Conditions	CTG-3D luminescence at 96 h
12.5 pM	2.32 ± 0.86
0.00025 µM	2.47 ± 0.85
0.005 µM	2.09 ± 0.46
0.1 µM	2.12 ± 0.35
1 µM	1.83 ± 0.77
10 µM	1.9 ± 0.98
100 µM	1.64 ± 0.53
625 fM	2.12 ± 0.37

CC(C)n1nc(-c2ccc3oc(N)nc3c2)c2c(N)ncnc21 [sapanisertib]
CTG-3D luminescence at 96 h
Conditions	12.5 pM	0.00025 µM	0.005 µM	0.1 µM	1 µM	10 µM	100 µM	625 fM
HCI-001, days in culture: 240	1.65	0.951	0.588	0.395	0.551	0.311	0.187	1.12
HCI-001, days in culture: 260	2.4	1.29	1.61	0.622	0.652	0.468	0.21	1.6
HCI-001, days in culture: 269	1.45	1.79	1.19	0.45	0.559	0.643	0.22	1.56
HCI-001, days in culture: 327	1.36	0.761	1.33	0.802	0.759	0.319	0.111	1.75
HCI-001, days in culture: 346	1.38	1.32	1.09	0.528	0.577	0.315	0.15	1.13
HCI-001, days in culture: 364	1.44	1.12	1.21	0.397	0.464	0.318	0.14	1.46
HCI-012, days in culture: 143	1.67	2.13	1.85	1.06	0.799	0.586	0.181	1.68
HCI-012, days in culture: 162	2.13	2.28	1.6	1.27	0.748	0.846	0.197	2.82
HCI-012, days in culture: 201	2.95	2.02	1.89	0.938	1.37	0.293	0.0781	1.73
HCI-024, days in culture: 105	1.5	1.82	1.16	0.885	0.716	0.64	0.243	1.88
HCI-024, days in culture: 122	2.28	2.85	1.86	0.922	0.842	0.81	0.3	2.57
HCI-024, days in culture: 163	2.15	1.91	1.59	1.61	1.1	0.902	0.363	1.85
HCI-027, days in culture: 176	2.05	1.48	2.22	0.7	0.529	0.264	0.0926	1.82
HCI-027, days in culture: 194	1.72	1.59	1.5	0.847	0.824	0.441	0.102	1.57
HCI-027, days in culture: 201	2.25	1.83	2.1	0.956	0.784	0.301	0.141	2.47

HCI-003.E2
Conditions	CTG-3D luminescence at 96 h
12.5 pM	2.24 ± 0.71
0.00025 µM	2.55 ± 0.68
0.005 µM	1.59 ± 0.54
0.1 µM	0.0566 ± 0.025
1 µM	0.0162 ± 0.011
10 µM	0.0035 ± 0.0049
100 µM	-0.00157 ± 0.0026
625 fM	2.03 ± 0.3
